Measured values published in patent US11046690B2, “Pyridazinones and methods of use thereof” (Goldfinch Bio, Inc., priority 2018, dated 2021).

Target: T1, TRPC5 (Homo sapiens, UniProt Q9UL62)
T1 construct: expressed in transfected cells
T1 sequence (Q9UL62 1-973): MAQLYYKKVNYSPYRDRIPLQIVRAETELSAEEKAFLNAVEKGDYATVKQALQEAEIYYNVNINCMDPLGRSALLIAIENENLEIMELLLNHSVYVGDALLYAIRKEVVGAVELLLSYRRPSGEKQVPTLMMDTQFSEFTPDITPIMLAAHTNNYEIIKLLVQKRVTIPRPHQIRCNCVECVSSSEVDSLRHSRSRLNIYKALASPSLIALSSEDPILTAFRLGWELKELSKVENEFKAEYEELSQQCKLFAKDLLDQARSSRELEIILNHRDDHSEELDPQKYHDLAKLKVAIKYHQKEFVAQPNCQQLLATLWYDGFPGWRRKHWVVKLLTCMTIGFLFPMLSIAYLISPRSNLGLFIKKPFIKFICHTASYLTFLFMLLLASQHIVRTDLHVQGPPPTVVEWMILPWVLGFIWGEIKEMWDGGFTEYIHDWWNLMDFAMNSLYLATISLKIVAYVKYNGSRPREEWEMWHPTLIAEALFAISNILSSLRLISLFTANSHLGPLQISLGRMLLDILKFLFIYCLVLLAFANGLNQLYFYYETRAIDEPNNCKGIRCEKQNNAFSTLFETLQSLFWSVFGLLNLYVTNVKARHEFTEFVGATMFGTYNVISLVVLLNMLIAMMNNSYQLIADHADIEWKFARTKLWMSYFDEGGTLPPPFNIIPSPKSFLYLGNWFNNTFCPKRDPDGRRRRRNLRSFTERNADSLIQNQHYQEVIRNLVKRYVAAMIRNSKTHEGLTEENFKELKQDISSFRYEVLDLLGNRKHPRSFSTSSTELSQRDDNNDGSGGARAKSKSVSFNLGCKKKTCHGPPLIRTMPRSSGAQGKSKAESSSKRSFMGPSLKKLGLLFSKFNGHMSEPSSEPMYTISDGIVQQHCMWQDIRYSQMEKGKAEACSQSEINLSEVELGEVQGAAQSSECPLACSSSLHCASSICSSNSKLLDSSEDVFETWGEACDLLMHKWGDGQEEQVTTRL
Assay: TRPC5 activity assay (FLIPR calcium fluorescence, Riluzole stimulation)
Assay type: cell-based
Details: HEK-TREx hTRPC5 cells, 30 μM Riluzole stimulation; read-out: TRPC5 (IC50 class)
Experimental: ICLN-1633 cells (HEK-TREx hTRPC5) expressing TRPC5 were generated as follows. Commercially available HekTrex-293 cells were seeded at 0.7×10^6 cells/well in a 1×6-well plate 24 hrs prior to transfection using 2 mL cell growth media containing no antibiotics (1× DMEM/high glucose (Hyclone #SH30022.02); 10% fetal bovine serum (Sigma) 2 mM sodium pyruvate, 10 mM HEPES). […] On day 2, 2 μg of plasmid DNA plus 6 μl of Xtreme-GENE HP reagent in Optimem (200 μl total volume) was prepared and incubated for 15 min at room temperature. This plasmid solution was then gently overlayed dropwise onto each well and the plate was gently swirled to mix complex with the media for approximately 30 seconds. Transfected cells were incubated at 37° C. in a 10%/CO2 incubator for 24 hrs. The transfected cells were harvested and transferred into 2×150 mm dishes containing cell growth media with no antibiotics at 37° C.
The next day selection was initiated to generate a stable pool by adding cell growth media containing 150 μg/mL Hygromycin and 5 μg/mL Blasticidin and cells were allowed to grow. Media with the selection agent was changed every 1-2 days as needed to remove dead cells. After 7 days, the hygromycin concentration was reduced to 75 μg/mL and cells growth was allowed to continue.
Single clones were selected as follows. The stable pool was diluted to 10 cells/mL and seeded (100 μl/well) into 24×96 well plates (˜1 cell/well) and allowed to grow for 7 days in cell growth media. Fresh media (100 μl) was added and the cells allowed to grow for another 1-2 weeks and then stored frozen or used immediately.
10-point dose response curves were generated using the Echo-550 acoustic dispenser. Compound source plates were made by serially diluting compound stocks to create 10 mM, 1 mM, and 0.1 mM solutions in DMSO into Echo certified LDV plates. The Echo then serially spotted 100%/DMSO stock solutions into source dose response plates to generate a 4-fold dilution scheme. 100%0/DMSO was added to the spotted dose response plates to bring the final volume to 5 μl. 300 nl of the dose response stock plate was then spotted into pre-incubation and stimulation assay plates. 50 μl of pre-incubation buffer and 100 μl of stimulation buffer was then added to the plates resulting in a final assay test concentration range of 30 μM to 0.0001 μM with a final DMSO concentration of 0.3%.
Human ICLN-1633 cells expressing were plated onto 384 well, black PDL-coated microplates and maintained in TRPC5 growth media the day prior to use for experiments. TRPC5 expression was induced by the application of 1 μg/mL tetracycline at the time of plating. […] Cells are incubated at room temperature, protected from light, for 60-90 minutes. After the incubation period, the dye is removed and replaced with 10 μl of EBSS. Cell, pre-incubation and stimulation plates are loaded onto the FLIPR-II and the assay is initiated. The FLIPR measures a 10 second baseline and then adds 10 μl of 2X compounds (or controls). Changes in fluorescence are monitored for an additional 5 minutes. After the 5 minute pre-incubation, 20 μl of 2X Riluzole (with 1X compound or controls) is added to the cell plate. The final Riluzole stimulation concentration in the assay is 30 μM. After the Riluzole addition, changes in fluorescence are monitored for an additional 5 minutes.
Compound modulation of TRPC5 calcium response was determined as follows. After the Englerin A, fluorescence was monitored for a 5-minute period. The maximum relative fluorescence response (minus the control response of 1 μM of an internal control compound known to maximally block TRPC5 calcium response, the “REF INHIB” in the formula below) was captured and exported from the FLIPR.
Compound effect is calculated as % inhibition using the following formula:
[formula] wherein “RFU” is the relative fluorescent units.

Row | IC50 | SMILES
1 | < 50 nM | CC1Cc2c(ncnc2Oc2ccc(F)cc2Cl)CN1c1cn[nH]c(=O)c1Cl (single isomer, unassigned) [Compound 117]
2 | < 50 nM | O=c1[nH]ncc(N2CCc3c(ncnc3Oc3ccc(F)cc3Cl)C2)c1Cl [Compound 104]
